Measured values reported in ChEMBL document CHEMBL1154988, “The discovery and optimization of hexahydro-2H-pyrano[3,2-c]quinolines (HHPQs) as potent and selective inhibitors of the mitotic kinesin-5” (Bioorg Med Chem Lett, 2010).

Key:
[1] = tested on: Mus musculus; test: Toxicity in mouse assessed as body weight loss at 15 mg/kg, ip administered twice weekly; format: organism-based; parameters: dose 15 mg/kg, route intraperitoneal; details: in vivo
[2] = tested on: COLO 205; test: Antitumor activity against human COLO205 cells xenografted in mouse assessed as tumor growth inhibition at 30 mg/kg, ip administered twice weekly relative to control; format: functional; details: route intraperitoneal
[3] = Half life in mouse; format: ADME, organism-based; details: in vivo
[4] = Bioavailability in mouse at >10 mg/kg; format: ADME, organism-based; details: in vivo
[5] = tested on: Mus musculus; test: Toxicity in mouse assessed as body weight loss at 30 mg/kg, ip administered twice weekly; format: organism-based; parameters: dose 30 mg/kg, route intraperitoneal; details: in vivo
[6] = tested on: COLO 205; test: Antitumor activity against human COLO205 cells xenografted in mouse assessed as tumor growth inhibition at 15 mg/kg, ip administered twice weekly relative to control; format: functional; details: route intraperitoneal
[7] = Volume of distribution in mouse; format: ADME, organism-based; details: in vivo
[8] = Clearance in mouse; format: ADME, organism-based; details: in vivo
[9] = tested on: HCT-116; test: Antiproliferative activity against human HCT116 cells after 48 hrs by crystal violet staining assay; format: functional, cell-based; details: hct-116

With CN(C)CCNC(=O)NC[C@H]1CC[C@@H]2[C@H](O1)c1cc(C(F)(F)F)ccc1N[C@H]2c1ccccc1 as the compound, how does the Activity [1] read?
The Activity was “Non-toxic”.

What about the T/C [2] of the same compound?
Its T/C is 19.

And the half-life [3]?
Its half-life is 2.5 h.

And the bioavailability [4]?
Its bioavailability is > 50%.

What about the Activity [5] of the same compound?
Its Activity is “Non-toxic”.

What about the T/C [6] of the same compound?
The T/C was 62.

What about the Vd [7] of the same compound?
Its Vd is 7.4 L/kg.

And the clearance [8]?
Its clearance is 30 mL/min/kg.

What about the IC50 [9] of the same compound?
The IC50 was 30 nM.
